Measurements reported in publication PMC10580383, “Development of Melanocortin 4 Receptor Agonists by Exploiting Animal-Derived Macrocyclic, Disulfide-Rich Peptide Scaffolds” (ACS Pharmacology & Translational Science, 2023).
Where a SMILES comes first, the peptide text is derived from it. Bridges are numbered along the chain shown (N, C = ends). [ ]: non-standard residue; d: D form.

Key:
[1] = molecular target: T1, mouse melanocortin 4 receptor (MC4R) (Mus musculus, UniProt P56450); assay: cAMP second messenger quantification assay (Cisbio HTRF cAMP Gs kit); assay type: cell-based; details: for Emax: HEK293, read-out: efficacy cAMP Emax ± SD
T1 construct: expressed in transfected cells; host or cells: HEK293 / HEK293T, transient transfection
Method: Figure 3 Functional cAMP assay of synthesized peptide analogues targeting MC4R. The accumulation of adenylyl cyclase-catalyzed cAMP of (A) tachylplesin-1-like peptides (Ta1LPs, green), (B) protegrin-4-like peptides ([…], pink), (C) arenicin-3-like peptides (Ar3LPs, orange), and (D) gomesin-like peptides (GoLPs, blue) was measured in HEK293 cells transiently expressing mouse melanocortin 4 receptor (MC4R). […] Data are from three independent experiments and are shown as mean ± SEM.
Assays were performed on cells transiently expressing mouse MC4R-EGFP. BamHI and SacI restriction sites were used to clone mouse MC4R N-terminally into a pEGFP-N1 vector. Peptide ligands were assayed for […] in a 384-well format and triplicate according to the Cisbio protocol. Briefly, 5 μL containing 10,000 cells per well was incubated with 5 μL of peptide solutions prepared 2× in 1× stimulation buffer. Following an incubation of peptide ligands at 37 °C for 30 min, d2-labeled cAMP and cryptate-labeled antibody (5 μL of each) were added to the mixture and further incubated for at least 1 h at room temperature. Subsequently, cAMP levels were quantified on a Flexstation 3 (Molecular Devices, San Jose, USA) using homogeneous time-resolved fluorescence resonance energy transfer and the ratio 665/620 nm. Samples were measured in technical triplicates.
Data analysis was performed with GraphPad Prism (GraphPad Software, San Diego). The potency (EC50) and maximum efficacy (Emax) values of peptide ligands were derived from functional data fitted to three- or four-parameter nonlinear regression curves constrained to a bottom of zero.

mouse MC4R-EGFP = assay: kinetic BRET β-arrestin-2 recruitment assay (MC4R-EGFP / β-arrestin-2-nanoluciferase); assay type: cell-based; details: ligand 10 μM; HEK293 cells, MC4R-EGFP and β-arrestin-2-NLuc; mean ligand-induced BRET from 312 to 2433 s, NDP-α-MSH set as 100; three independent experiments
Method: Considering the physiological relevance of β-arrestins and their critical role in orchestrating MC4R signaling, we measured β-arrestin-2 recruitment in a kinetic bioluminescence resonance energy transfer (BRET) assay. We screened at a ligand concentration of 10 μM in HEK293 cells transiently expressing MC4R coupled to EGFP, and β-arrestin-2 fused to nanoluciferase. […] By contrast, Pr4LP1, Ar3LP1, Ar3LP2, and GoLP1 recruited β-arrestin-2 with greater efficiencies (>130%) than NDP-α-MSH (Figures 4 and S5B,C).
Figure 4 β-Arrestin-2 recruitment of designed MC4R peptide analogues. BRET assay was used to measure the transient interaction of MC4R-EGFP with β-arrestin-2-nanoluciferase (NLuc) in HEK293 cells over time following cell treatment with 10 μM of tachyplesin-1-like peptides (Ta1LPs, green), protegrin-4-like peptides (Pr4LPs, pink), arenicin-3-like peptides (Ar3LPs, orange), and gomesin-like peptides (GoLPs, blue). Relative BRET quantification was determined by calculating the mean value of ligand-induced BRET for each peptide ligand from 312 to 2433 s which was then divided by the mean value of ligand-induced BRET of NDP-α-MSH set as 100. Data are shown as mean ± SEM from three independent experiments.
BRET assay was performed as previously described.[32] Briefly, β-arrestin-2-nano luciferase and mouse MC4R-EGFP were cotransfected in a 1:10 ratio. 16 h post-transfection, 50,000 cells in 100 μL of phenol red-free DMEM with 10% FBS per well were transferred into white clear bottom 96-well plates and incubated overnight. On the day of the assay, cells were incubated for 1 h at 37 °C in phenol red- and serum-free DMEM. Furimazine (diluted 1:50) and peptide ligands (4×) were prepared in Hank’s balanced salt solution (HBSS), respectively. Prior to establishing the baseline and measuring kinetic BRET, furimazine was incubated for 5 min at 37 °C. The ability of peptide ligands to induce β-arrestin-2 recruitment was assessed by measuring light emissions for EGFP (510 nm) and nanoluciferase (460 nm) over 35 min using Flexstation 3 (Molecular Devices, San Jose, USA). The BRET ratio was calculated as emission EGFP (510 nm)/emission nanoluciferase (460 nm). The ligand-induced BRET was calculated by subtracting […].

human MC4R [2] = molecular target: T2, human MC4R (Homo sapiens, UniProt P32245); assay: nanoluciferase complementation assay MC4R-LgBit / Gαs-SmBit (Gαs coupling); assay type: cell-based; details: for increase in efficacy in recruiting Gαs compared to α-MSH: nanoluciferase complementation MC4R-LgBit/Gαs-SmBit, normalized to α-MSH maximum response
T2 construct: expressed in transfected cells; host or cells: HEK293T, transient co-transfection
Method: We proceeded with more detailed pharmacological characterization of Pr4LP1 and Ar3LP1 to gain more insights into the signaling pathways that follow MC4R stimulation.
(§1) Figure 5 Biosensor characterization of Pr4LP1 and Ar3LP1 peptides acting as agonists at MC4R. […] Data are represented as means ± SEM for all experimental replicates and were performed in triplicate from n ≥ 3 independent experiments.
(§2) The plasmid constructs used to show interactions between human MC4R and Gαs protein and/or β-arrestin-2 were designed with fused SmBit and LgBit proteins, that upon complementation form the fully functional nanoluciferase enzyme that can produce detectable bioluminescence upon addition of the substrate furimazine. For the Gαs coupling, we used a LgBit fused at the C-terminus of MC4R (MC4R-LgBit) and cotransfected with the Gαs-SmBit construct. For the β-arrestin-2 recruitment assay, we used a C-terminally fused MC4R-SmBit and the β-arrestin-2-LgBit constructs. The cotransfection ratio was 1:10 (Gαs/β-arrestin-2/receptor). Cells were harvested, washed, and resuspended in fresh medium 24 h post-transfection. Approximately 5 × 10^4 cells/well were distributed in precoated 96-well white plates and allowed to adhere overnight. On an experimental day, cells were washed with HBSS and maintained in HBSS (80 μL/well). The furimazine substrate for the luciferase (50×) stock was diluted at 1× with HBSS, and 10 μL/well was added to all assay wells and incubated for 12 min before addition of ligands. Ligand dilutions were prepared at 10× final concentration in HBSS, and 10 μL/well was added to the assay wells. Plates were read 5 min following ligand addition using a ClarioStar equipped with a nanoluc-compatible optic module (BMG Labtech). […] EC50/Emax values were calculated via a nonlinear regression analysis.
Target sequence in this assay (P32245 whole entry): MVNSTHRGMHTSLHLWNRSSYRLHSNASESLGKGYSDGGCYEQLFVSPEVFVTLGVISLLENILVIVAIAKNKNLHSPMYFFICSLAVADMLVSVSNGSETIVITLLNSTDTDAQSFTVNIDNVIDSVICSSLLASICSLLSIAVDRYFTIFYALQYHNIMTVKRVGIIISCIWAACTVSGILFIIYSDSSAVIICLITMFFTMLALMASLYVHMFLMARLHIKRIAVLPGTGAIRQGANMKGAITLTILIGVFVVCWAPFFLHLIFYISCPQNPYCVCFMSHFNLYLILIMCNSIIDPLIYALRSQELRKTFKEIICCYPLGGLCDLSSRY

human MC4R [3] = molecular target: T2, human MC4R; assay: nanoluciferase complementation assay MC4R-SmBit / β-arrestin-2-LgBit (β-arrestin-2 recruitment); assay type: cell-based; details: for increased potency in β-arrestin-2 recruitment as compared to α-MSH: ratio of EC50 values, nanoluciferase complementation MC4R-SmBit/β-arrestin-2-LgBit; for Emax: read-out: increase in efficacy (Emax) of β-arrestin-2 recruitment compared to α-MSH
Method: as §1
Target sequence in this assay (P32245 whole entry): as above
Target sequence in this assay (P32121 whole entry partner): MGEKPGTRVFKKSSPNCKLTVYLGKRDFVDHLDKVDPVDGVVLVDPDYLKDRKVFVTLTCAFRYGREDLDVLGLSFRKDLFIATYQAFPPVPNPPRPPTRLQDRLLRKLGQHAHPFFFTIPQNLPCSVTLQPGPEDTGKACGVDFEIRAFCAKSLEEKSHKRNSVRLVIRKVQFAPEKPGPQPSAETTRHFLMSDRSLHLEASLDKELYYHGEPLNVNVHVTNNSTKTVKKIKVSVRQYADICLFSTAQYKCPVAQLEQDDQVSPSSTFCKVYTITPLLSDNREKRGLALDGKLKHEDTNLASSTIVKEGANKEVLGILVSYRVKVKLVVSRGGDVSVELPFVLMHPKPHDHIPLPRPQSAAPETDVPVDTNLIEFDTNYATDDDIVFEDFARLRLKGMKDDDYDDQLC
In an attempt to quantify signaling bias using the Black–Leff operational model by calculating ΔΔlog(τ/KA),[27]–[29] we identified a trend for preferred β-arrestin-2 recruitment over Gαs coupling, albeit not significant (data not shown).
as §2

MC4R over MC1R and MC3R = details: Figure S6

T1 sequence (P56450 whole entry): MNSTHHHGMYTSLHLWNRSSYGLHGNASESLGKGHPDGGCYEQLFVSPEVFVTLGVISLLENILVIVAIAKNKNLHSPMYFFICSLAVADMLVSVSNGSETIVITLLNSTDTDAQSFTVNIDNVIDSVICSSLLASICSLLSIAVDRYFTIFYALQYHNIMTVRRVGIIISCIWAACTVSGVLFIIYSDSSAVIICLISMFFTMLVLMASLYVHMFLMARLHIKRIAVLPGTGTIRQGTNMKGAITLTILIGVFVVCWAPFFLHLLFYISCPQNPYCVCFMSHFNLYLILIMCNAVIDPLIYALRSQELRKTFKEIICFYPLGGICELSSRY

CC(C)[C@@H]1NC(=O)[C@H](Cc2ccc(O)cc2)NC(=O)[C@H](Cc2c[nH]c3ccccc23)NC(=O)[C@@H](NC(=O)[C@H](Cc2ccccc2)NC(=O)CN)CSSC[C@@H](C(=O)N[C@@H](CC(N)=O)C(N)=O)NC(=O)[C@H](CCCNC(=N)N)NC(=O)[C@H](CCCNC(=N)N)NC(=O)[C@H](Cc2ccc(O)cc2)NC(=O)[C@@H]2CSSC[C@H](NC1=O)C(=O)N1CCC[C@H]1C(=O)N[C@@H](Cc1c[nH]cn1)C(=O)N[C@H](Cc1ccccc1)C(=O)N[C@@H](Cc1c[nH]cn1)C(=O)N[C@@H](Cc1c[nH]c3ccccc13)C(=O)N2 [Ar3LP1] (H-GFCWYVCPH[dF]HWCYRRCN-NH2; disulfide 3-17, 7-13)
EC50 [1]: 1 nM | Emax [1]: 98 ± 4% | BRET efficacy of β-arrestin-2 recruitment relative to NDP-α-MSH (mouse MC4R-EGFP): > 130% | EC50 (human MC4R [2]): 0.702 nM | increase in efficacy in recruiting Gαs compared to α-MSH (human MC4R [2]): 25% | EC50 (human MC4R [3]): 25.2 nM | increased potency in β-arrestin-2 recruitment as compared to α-MSH (human MC4R [3]): approximately 20 fold | Emax (human MC4R [3]): 82% | selectivity in recruiting β-arrestin-2 (MC4R over MC1R and MC3R): selective for MC4R over MC1R and MC3R

CC(C)C[C@H](NC(=O)[C@H](CCCNC(=N)N)NC(=O)CNC(=O)CNC(=O)[C@@H](N)CCCNC(=N)N)C(=O)N[C@H]1CSSC[C@@H](C(=O)N[C@H](C(=O)NCC(=O)N[C@@H](CCCNC(=N)N)C(N)=O)C(C)C)NC(=O)[C@H](Cc2ccccc2)NC(=O)[C@@H]2CSSC[C@H](NC(=O)[C@H](Cc3ccc(O)cc3)NC1=O)C(=O)N1CCC[C@H]1C(=O)N[C@@H](Cc1c[nH]cn1)C(=O)N[C@H](Cc1ccccc1)C(=O)N[C@@H](Cc1c[nH]cn1)C(=O)N[C@@H](Cc1c[nH]c3ccccc13)C(=O)N2 [Pr4LP1] (H-RGGRLCYCPH[dF]HWCFCVGR-NH2; disulfide 6-16, 8-14)
EC50 [1]: 3.98 nM | Emax [1]: 96 ± 3% | BRET efficacy of β-arrestin-2 recruitment relative to NDP-α-MSH (mouse MC4R-EGFP): > 130% | EC50 (human MC4R [2]): 0.193 nM | increase in efficacy in recruiting Gαs compared to α-MSH (human MC4R [2]): 8.8% | EC50 (human MC4R [3]): 23.5 nM | increased potency in β-arrestin-2 recruitment as compared to α-MSH (human MC4R [3]): approximately 20 fold | Emax (human MC4R [3]): 99% | selectivity in recruiting β-arrestin-2 (MC4R over MC1R and MC3R): selective for MC4R over MC1R and MC3R
